The values that follow are results of earlier work, collected in patent US6410601B1, “Histochrome and its therapeutic use in acute myocardial infarction and ischemic heart disease” (priority 1998, dated 2002).

This series concerns patients with acute myocardial infarction. The conditions noted are these: 10 mg/kg intravenously before thrombolytic reperfusion.

On to `CCc1nc(C)ccc1O` [Emoxipin], for which the “reduction of the size of the asynergic zone in the myocardium” value (26 patients, control group 39.2%) is listed as 59.5%. Further, the “frequency of myocardial arrhythmias” value (control 28.1%) is reported as 13.9%. The “lipid peroxidation in terms of malonic dialdehyde concentration” value (monotherapy 309%) was 60%.
